Molecules are shown by their SMILES. Where “and” joins values, the source holds several entries; their conditions need not be identical. Equal entries are not always repeated.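 Grown in 96-well plates, cells were treated for 48 hours with each compound at five concentrations. Insufficient inhibition: endpoint recorded as highest concentration tested. GI50: concentration for 50% inhibition of growth. Definition used: TGI = concentration required for complete inhibition of growth.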

What all share (experiment): NCI anticancer screen, dose series, 48 h
In assay [1] the test system is SNB-19 CNS.
In assay [2] the test system is PC-3 prostate.
Assay [3] has as its system HT29 colon.
Assay [4] deals with SK-MEL-28 melanoma.
In assay [5] the test system is RPMI-8226 leukemia.
Assay [6] concerns TK-10 renal.
Assay [7] has as its system HCT-15 colon.
The subject of assay [8] is NCI/ADR-RES ovarian.
For assay [9], the system named is CAKI-1 renal.
For assay [10], the system named is HCT-116 colon.

Turning to `O=S(=O)(c1ccc(NC(=S)N/N=C/c2ccccc2O)cc1)N1CCCCC1`, the TGI is above 100 µM in [1]; 21.1 µM in assay [2]; above 68.8 µM in [3]; above 52 µM in assay [4]; 8.17 µM in assay [5]; 4.23 µM in assay [6]. Moreover, the TGI in [7] is 18.4 µM; in assay [8] it was 0.586 µM; in assay [9], 0.671 µM; in [10] it was 7 µM.

Regarding `Nc1cccc2c1C(=O)N(C1CCC(=O)NC1=O)C2=O` (stereo not given), the GI50 in [1], in [2], in assay [3], in assay [4], in [5] and in [6] was above 100 µM in each case. The GI50 in assay [7], in [8], in [9] and in [10] was above 100 µM each time. Moreover, the TGI in assay [1], in [2], in assay [3], in assay [4], in [5] and in assay [6] was above 100 µM each time. Also, the TGI in assay [7], in assay [8], in [9] and in [10] was above 100 µM in each case.

On to `COc1cc(CCc2cc(NC(=O)c3ccc(N4C[C@@H](C)N[C@@H](C)C4)cc3)n[nH]2)cc(OC)c1`, for which the GI50 in assay [1] is > 10 µM and 14.9 µM; in assay [2], > 10 µM and 6.92 µM; in assay [3] it was 3.86 µM and 3.33 µM; in [4], > 10 µM and 7.74 µM; in [5], 4.82 µM and 4.65 µM; in [6], > 10 µM and 10.4 µM. In addition, the GI50 in [7] was > 10 µM and 9.71 µM; in assay [8], > 10 µM and 17.1 µM; in assay [9], > 10 µM and 5.76 µM; in assay [10], 3.79 µM and 3.49 µM. Further, the TGI in assay [1] is > 10 µM and 30.8 µM; in assay [2], > 10 µM and 23.9 µM; in [3], > 10 µM and 13.3 µM; in assay [4], > 10 µM and 20.9 µM; in [5], > 10 µM and 19.6 µM; in assay [6] it was > 10 µM and 23.6 µM. The TGI was > 10 µM and 23.6 µM in assay [7]; > 10 µM and 36.8 µM in assay [8]; > 10 µM and 21.8 µM in assay [9]; > 10 µM and 13.1 µM in assay [10].

For the molecule `ClC(=Nc1cccc2ccccc12)N(c1ccccc1)c1ccccc1`, the TGI is above 100 µM in assay [1]; above 100 µM in assay [2]; above 100 µM in assay [3]; above 100 µM in assay [4]; 89.3 µM in [5]; above 100 µM in assay [6]. For the same molecule, the TGI in [7], in [8], in assay [9] and in [10] was above 100 µM in each case.

In the case of `O=[N+]([O-])c1ccc(Sc2ncccn2)c([N+](=O)[O-])c1`, the GI50 in [1] was 10.8 µM; in assay [2] it was 2.13 µM; in assay [3], 3.39 µM; in assay [4] it was 3.89 µM; in [5], 1.89 µM; in [6] it was 2.57 µM. The GI50 in [7] is 2.67 µM; in assay [8], 6.55 µM; in assay [9], 1.36 µM; in assay [10], 3.43 µM. The TGI in assay [1] turned out to be 23.1 µM; in assay [2], 15.1 µM; in assay [3], 12.9 µM; in [4] it was 13.5 µM; in assay [5] it was 5.4 µM; in assay [6], 5.77 µM. In addition, the TGI came out at 11.1 µM in assay [7], 20.1 µM in [8], 3.59 µM in [9] and 11.8 µM in assay [10].

For `O=C(Nc1ccncc1)C(=O)c1cn(S(=O)(=O)c2ccc(Br)cc2)c2ccccc12`, the GI50 in assay [1] was 14.1 µM; in assay [2] it was 8.87 µM; in [3] it was 2.82 µM; in [4] it was 4.77 µM; in assay [5], 4.56 µM; in assay [6] it was 15.1 µM. Besides, the GI50 in assay [7] is 3.81 µM; in [8], 2.65 µM; in assay [9], 4.44 µM; in assay [10] it was 3.71 µM. Further, the TGI in assay [1], in assay [2], in [3], in [4], in assay [5] and in assay [6] was above 100 µM in each case. Further, the TGI in assay [7], in assay [8], in assay [9] and in [10] was above 100 µM throughout.

With `CCCCCCCCCCCCCCCCCCNC(=O)[C@H]1CSC(c2ccc(OC)c(F)c2)N1` (stereo not given in full), the GI50 is 21.2 µM in assay [1]; 6.09 µM in assay [2]; 5.05 µM in [3]; 1.42 µM in assay [4]; 0.435 µM in assay [5]; 28.3 µM in [6]. The GI50 is above 37.1 µM in [7], 2.52 µM in assay [8], 3.98 µM in [9] and 1.68 µM in assay [10]. The TGI in assay [1] was above 52.1 µM; in assay [2] it was 28.3 µM; in assay [3], above 41.4 µM; in assay [4] it was 3.52 µM; in [5], 1.91 µM; in [6], above 57.7 µM. Also, the TGI in assay [7] is above 53.1 µM; in assay [8], 6.22 µM; in assay [9], 16.9 µM; in [10], 3.5 µM.

Regarding `O=C1/C(=C\c2ccc(Cl)cc2)CN(C(=S)Nc2ccccc2)C/C1=C\c1ccc(Cl)cc1`, the GI50 in [1] is 0.661 µM; in assay [2] it was 0.371 µM; in [3], 0.277 µM; in assay [4], 1.79 µM; in [5], 0.136 µM; in [6], 1.96 µM. Moreover, the GI50 in [7] is 0.283 µM; in [8] it was 2.54 µM; in assay [9], 2.56 µM; in assay [10], 0.213 µM. Also, the TGI in assay [1] stood at 1.95 µM; in assay [2], 2.09 µM; in [3] it was 0.719 µM; in [4], 3.39 µM; in assay [5], 0.646 µM; in [6], 4.48 µM. For the same molecule, the TGI is 3.27 µM in [7], 18.4 µM in [8], above 29.2 µM in assay [9] and 0.438 µM in assay [10].

The values are drawn from PubChem BioAssay (NCI).
